Experimental data taken from article PMC6220272, “Scaffold-Hopping from Synthetic Drugs by Holistic Molecular Representation” (Scientific Reports, 2018).

Columns and labels:
Type in all cases: cell-based
[1] = test system: ATP-binding cassette transporter A1 (ABCA1) mRNA in HepG2 cells; test: Target gene quantification (quantitative real-time PCR), ABCA1; conditions: HepG2, 7 at 30 µM versus bexarotene at 1 µM, 8 h, qRT-PCR
Experimental: (§1) Moreover, 7 was characterized for its ability to modulate RXR target gene expression under more physiological conditions. Hepatoma cells (HepG2) were incubated with 7 (30 µM) or reference RXR agonist bexarotene (9, 1 µM) for eight hours and mRNA expression of RXR regulated genes ATP-binding cassette transporter A1 (ABCA1), angiopoietin like protein 4 (ANGPTL4) and apolipoprotein E (ApoE) was analysed by quantitative real-time PCR.
HepG2 cells were incubated with test compound 7 (30 µM) or bexarotene (1 µM) as positive control each dissolved in 0.1% DMSO or 0.1% DMSO alone as untreated control for 8 h, harvested, washed with cold phosphate buffered saline (PBS) and then directly used for RNA extraction with the Total RNA Mini Kit (R6834-02, Omega Bio-Tek, Inc., Norcross, GA, USA). 2 µg RNA were reverse-transcribed into cDNA using the High-Capacity cDNA Reverse Transcription Kit (4368814, Thermo Fischer Scientific, Inc.). RXR target gene expression was evaluated by quantitative real time PCR analysis with a StepOnePlus™ System (Life Technologies, Carlsbad, CA, USA) using PowerSYBRGreen (Life Technologies; 12.5 µl per well) and the primers reported in Supplementary Table 4[58]. […] The expression was quantified by the comparative ∆∆Ct method. […] Results are expressed as mean ± standard error of the mean (SEM) relative mRNA expression compared to DMSO (0.1%) control which was set as 1.

[2] = target: T1, pregnane X receptor [PXR] (Homo sapiens, UniProt O75469); test: Gal4 hybrid reporter gene assay PXR (selectivity profiling)
T1 construct: expressed in transfected cells; host or cells: HEK293T
T1 sequence (O75469 146-433 limits assumed): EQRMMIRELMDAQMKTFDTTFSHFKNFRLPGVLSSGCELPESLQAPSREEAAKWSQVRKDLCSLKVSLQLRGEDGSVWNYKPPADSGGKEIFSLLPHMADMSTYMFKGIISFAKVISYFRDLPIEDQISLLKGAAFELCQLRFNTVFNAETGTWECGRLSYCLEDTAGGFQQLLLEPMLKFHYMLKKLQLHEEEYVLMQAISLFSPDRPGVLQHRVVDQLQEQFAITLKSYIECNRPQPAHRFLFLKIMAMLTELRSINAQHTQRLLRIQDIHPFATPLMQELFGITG
Experimental: as §1
(§2) The Gal4 hybrid reporter gene assays were conducted as reported previously[39]–[41]. pFA-CMV-based constructs comprising the ligand binding domain of the human nuclear receptor in question were used as expression plasmids for the chimera receptors. pFR-Luc (Stratagene) served as reporter plasmid and pRL-SV40 (Promega) for normalization of transfection efficiency and cell growth. The assays were conducted in 96-well format in HEK293T cells that were cultured as described previously[39]–[41]. Transient transfection was carried out using Lipofectamine LTX reagent (Invitrogen) according to the manufacturer’s protocol. After transfection and incubation with test compounds (12–14 h), cells were assayed for luciferase activity using Dual-Glo™ Luciferase Assay System (Promega) according to the manufacturer’s protocol. Luminescence was measured with an Infinite M200 luminometer (Tecan Deutschland GmbH). […]

[3] = target: T2, RARβ (Homo sapiens, UniProt P10826); test: Gal4 hybrid reporter gene assay RARβ (selectivity profiling)
T2 construct: expressed in transfected cells; host or cells: HEK293T
T2 sequence (P10826 183-417 limits assumed): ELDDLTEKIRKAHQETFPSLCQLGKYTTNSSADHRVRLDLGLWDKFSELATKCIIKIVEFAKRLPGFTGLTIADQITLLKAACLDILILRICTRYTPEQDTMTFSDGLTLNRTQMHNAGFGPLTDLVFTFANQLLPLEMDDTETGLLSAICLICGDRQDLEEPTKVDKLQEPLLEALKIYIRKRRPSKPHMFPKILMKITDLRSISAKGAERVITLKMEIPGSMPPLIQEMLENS
Experimental: as §1, §2

[4] = target: T3, LXRβ (Homo sapiens, UniProt P55055); test: Gal4 hybrid reporter gene assay LXRβ (selectivity profiling)
T3 construct: expressed in transfected cells; host or cells: HEK293T
T3 sequence (P55055 222-460 limits assumed): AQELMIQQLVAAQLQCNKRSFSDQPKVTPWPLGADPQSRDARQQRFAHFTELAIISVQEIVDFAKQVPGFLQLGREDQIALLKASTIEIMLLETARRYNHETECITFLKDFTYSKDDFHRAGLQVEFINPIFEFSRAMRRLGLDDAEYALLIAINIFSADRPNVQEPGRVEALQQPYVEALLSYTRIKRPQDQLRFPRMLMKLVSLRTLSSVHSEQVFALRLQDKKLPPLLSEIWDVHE
Experimental: as §1, §2

[5] = target: T4, PPARδ (Homo sapiens, UniProt Q03181); test: Gal4 hybrid reporter gene assay PPARδ (selectivity profiling)
T4 construct: expressed in transfected cells; host or cells: HEK293T
T4 sequence (Q03181 211-439 limits assumed): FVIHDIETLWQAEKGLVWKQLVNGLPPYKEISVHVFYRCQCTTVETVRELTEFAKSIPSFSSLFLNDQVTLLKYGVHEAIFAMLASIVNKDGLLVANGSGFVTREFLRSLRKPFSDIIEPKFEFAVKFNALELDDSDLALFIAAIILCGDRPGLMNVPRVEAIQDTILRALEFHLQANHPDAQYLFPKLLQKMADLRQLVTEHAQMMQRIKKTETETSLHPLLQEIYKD
Experimental: as §1, §2

activity on PXR [2]: no activity | activity on RARβ [3]: no activity | activity on LXRβ [4]: no activity | activity on PPARδ [5]: no activity
SMILES: CC(C)(C)c1cc(/C=N/NC(=O)c2ccc(N)cc2)cc(C(C)(C)C)c1 [Compound 7]
induction of ABCA1 mRNA expression [1]: comparable efficacy as RXR agonist bexarotene
